Earlier results as cited in patent US12359156B2, “Platform and method for testing antibiotic sensitivity of a polymicrobial infection” (Wisconsin Alumni Research Foundation, priority 2018, dated 2025).

Tested on: infection (patients' bacterial pathogens)
Conditions: phase 3 clinical trial

## CO/N=C(\C(=O)N[C@@H]1C(=O)N2C(C(=O)O)=C(COC(C)=O)CS[C@H]12)c1csc(N)n1 [cefotaxime]
Patients with a "resistant" antibiotic sensitivity test result
  patients who responded to the antibiotic therapy: 64%
Patients with a "sensitive" antibiotic sensitivity test result, best case scenario
  patients who would respond to the antibiotic therapy: 93%
